# Data published in PubChem BioAssay (NCI).
#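 The concentration for 50% growth inhibition is given as GI50. Definition used: TGI = concentration required for complete inhibition of growth.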
# Legend:
# Assay in all cases: inhibition of tumour cell growth, NCI panel, 384-well format
# 786-0 renal = test system: 786-0 renal
# A498 renal = test system: A498 renal
# A549 NSCLC = test system: A549 NSCLC
# ACHN renal = test system: ACHN renal
# BT-549 breast = test system: BT-549 breast
# CAKI-1 renal = test system: CAKI-1 renal
# CCRF-CEM leukemia = test system: CCRF-CEM leukemia
# COLO 205 colon = test system: COLO 205 colon
# DU-145 prostate = test system: DU-145 prostate
# EKVX NSCLC = test system: EKVX NSCLC
# HCC-2998 colon = test system: HCC-2998 colon
# HCT-116 colon = test system: HCT-116 colon
# HCT-15 colon = test system: HCT-15 colon
# HL-60(TB) leukemia = test system: HL-60(TB) leukemia
# HOP-62 NSCLC = test system: HOP-62 NSCLC
# HOP-92 NSCLC = test system: HOP-92 NSCLC
# HS 578T breast = test system: HS 578T breast
# HT29 colon = test system: HT29 colon
# IGROV1 ovarian = test system: IGROV1 ovarian
# KM12 colon = test system: KM12 colon
# LOX IMVI melanoma = test system: LOX IMVI melanoma
# M14 melanoma = test system: M14 melanoma
# MALME-3M melanoma = test system: MALME-3M melanoma
# MCF7 breast = test system: MCF7 breast
# MDA-MB-435 melanoma = test system: MDA-MB-435 melanoma
# MDA-MB-468 breast = test system: MDA-MB-468 breast
# MOLT-4 leukemia = test system: MOLT-4 leukemia
# NCI-H226 lung = test system: NCI-H226 lung
# NCI-H23 lung = test system: NCI-H23 lung
# NCI-H322M lung = test system: NCI-H322M lung
# NCI-H460 NSCLC = test system: NCI-H460 NSCLC
# NCI-H522 lung = test system: NCI-H522 lung
# NCI/ADR-RES ovarian = test system: NCI/ADR-RES ovarian
# OVCAR-3 ovarian = test system: OVCAR-3 ovarian
# OVCAR-4 ovarian = test system: OVCAR-4 ovarian
# OVCAR-8 ovarian = test system: OVCAR-8 ovarian
# PC-3 prostate = test system: PC-3 prostate
# RPMI-8226 leukemia = test system: RPMI-8226 leukemia
# RXF 393 renal = test system: RXF 393 renal
# SF-268 CNS = test system: SF-268 CNS
# SF-295 CNS = test system: SF-295 CNS
# SF-539 CNS = test system: SF-539 CNS
# SK-MEL-2 melanoma = test system: SK-MEL-2 melanoma
# SK-MEL-28 melanoma = test system: SK-MEL-28 melanoma
# SK-MEL-5 melanoma = test system: SK-MEL-5 melanoma
# SK-OV-3 ovarian = test system: SK-OV-3 ovarian
# SN12C renal = test system: SN12C renal
# SNB-19 CNS = test system: SNB-19 CNS
# SNB-75 CNS = test system: SNB-75 CNS
# SW-620 colon = test system: SW-620 colon
# TK-10 renal = test system: TK-10 renal
# U251 glioblastoma = test system: U251 glioblastoma
# UACC-257 melanoma = test system: UACC-257 melanoma
# UACC-62 melanoma = test system: UACC-62 melanoma
# K-562 leukemia = test system: K-562 leukemia
# OVCAR-5 ovarian = test system: OVCAR-5 ovarian
# T-47D breast = test system: T-47D breast
# UO-31 renal = test system: UO-31 renal
smiles,measurement,setting,value
O=C1c2ccccc2C(=O)C(Cl)C1Cl (stereo not given),GI50,786-0 renal,1.87 µM
same,TGI,786-0 renal,4.85 µM
same,GI50,A498 renal,17.7 µM
same,TGI,A498 renal,31.6 µM
same,GI50,A549 NSCLC,15.1 µM
same,TGI,A549 NSCLC,28.7 µM
same,GI50,ACHN renal,1.38 µM
same,TGI,ACHN renal,2.68 µM
same,GI50,BT-549 breast,1.56 µM
same,TGI,BT-549 breast,2.91 µM
same,GI50,CAKI-1 renal,1.66 µM
same,TGI,CAKI-1 renal,3.03 µM
same,GI50,CCRF-CEM leukemia,1.49 µM
same,TGI,CCRF-CEM leukemia,2.84 µM
same,GI50,COLO 205 colon,1.84 µM
same,TGI,COLO 205 colon,3.26 µM
same,GI50,DU-145 prostate,1.15 µM
same,TGI,DU-145 prostate,2.55 µM
same,GI50,EKVX NSCLC,7.02 µM
same,TGI,EKVX NSCLC,20.4 µM
same,GI50,HCC-2998 colon,14.1 µM
same,TGI,HCC-2998 colon,27.2 µM
same,GI50,HCT-116 colon,1.62 µM
same,TGI,HCT-116 colon,3.01 µM
same,GI50,HCT-15 colon,1.42 µM
same,TGI,HCT-15 colon,2.75 µM
same,GI50,HL-60(TB) leukemia,0.243 µM
same,TGI,HL-60(TB) leukemia,0.743 µM
same,GI50,HOP-62 NSCLC,3.33 µM
same,TGI,HOP-62 NSCLC,11.3 µM
same,GI50,HOP-92 NSCLC,1.64 µM
same,TGI,HOP-92 NSCLC,3 µM
same,GI50,HS 578T breast,12.7 µM
same,TGI,HS 578T breast,25.3 µM
same,GI50,HT29 colon,2.78 µM
same,TGI,HT29 colon,8.03 µM
same,GI50,IGROV1 ovarian,1.33 µM
same,TGI,IGROV1 ovarian,4.33 µM
same,GI50,KM12 colon,13.7 µM
same,TGI,KM12 colon,26.8 µM
same,GI50,LOX IMVI melanoma,0.0967 µM
same,TGI,LOX IMVI melanoma,17.4 µM
same,GI50,M14 melanoma,1.89 µM
same,TGI,M14 melanoma,3.39 µM
same,GI50,MALME-3M melanoma,1.76 µM
same,TGI,MALME-3M melanoma,3.15 µM
same,GI50,MCF7 breast,1.39 µM
same,TGI,MCF7 breast,2.72 µM
same,GI50,MDA-MB-435 melanoma,1.83 µM
same,TGI,MDA-MB-435 melanoma,3.4 µM
same,GI50,MDA-MB-468 breast,1.53 µM
same,TGI,MDA-MB-468 breast,2.87 µM
same,GI50,MOLT-4 leukemia,1.36 µM
same,TGI,MOLT-4 leukemia,2.65 µM
same,GI50,NCI-H226 lung,1.41 µM
same,TGI,NCI-H226 lung,2.77 µM
same,GI50,NCI-H23 lung,1.76 µM
same,TGI,NCI-H23 lung,3.92 µM
same,GI50,NCI-H322M lung,16.3 µM
same,TGI,NCI-H322M lung,30 µM
same,GI50,NCI-H460 NSCLC,14 µM
same,TGI,NCI-H460 NSCLC,27.2 µM
same,GI50,NCI-H522 lung,1.5 µM
same,TGI,NCI-H522 lung,2.84 µM
same,GI50,NCI/ADR-RES ovarian,11.2 µM
same,TGI,NCI/ADR-RES ovarian,23.3 µM
same,GI50,OVCAR-3 ovarian,1.6 µM
same,TGI,OVCAR-3 ovarian,2.95 µM
same,GI50,OVCAR-4 ovarian,1.21 µM
same,TGI,OVCAR-4 ovarian,2.46 µM
same,GI50,OVCAR-8 ovarian,1.67 µM
same,TGI,OVCAR-8 ovarian,3.07 µM
same,GI50,PC-3 prostate,1.73 µM
same,TGI,PC-3 prostate,3.59 µM
same,GI50,RPMI-8226 leukemia,1.55 µM
same,TGI,RPMI-8226 leukemia,2.9 µM
same,GI50,RXF 393 renal,1.63 µM
same,TGI,RXF 393 renal,3 µM
same,GI50,SF-268 CNS,13.9 µM
same,TGI,SF-268 CNS,27 µM
same,GI50,SF-295 CNS,15.2 µM
same,TGI,SF-295 CNS,28.5 µM
same,GI50,SF-539 CNS,1.69 µM
same,TGI,SF-539 CNS,3.08 µM
same,GI50,SK-MEL-2 melanoma,1.91 µM
same,TGI,SK-MEL-2 melanoma,3.32 µM
same,GI50,SK-MEL-28 melanoma,3.24 µM
same,TGI,SK-MEL-28 melanoma,9.55 µM
same,GI50,SK-MEL-5 melanoma,2.31 µM
same,TGI,SK-MEL-5 melanoma,9.5 µM
same,GI50,SK-OV-3 ovarian,13.2 µM
same,TGI,SK-OV-3 ovarian,26.1 µM
same,GI50,SN12C renal,1.81 µM
same,TGI,SN12C renal,3.46 µM
same,GI50,SNB-19 CNS,14.1 µM
same,TGI,SNB-19 CNS,27.2 µM
same,GI50,SNB-75 CNS,7.16 µM
same,TGI,SNB-75 CNS,20.5 µM
same,GI50,SW-620 colon,1.63 µM
same,TGI,SW-620 colon,3.02 µM
same,GI50,TK-10 renal,1.58 µM
same,TGI,TK-10 renal,2.93 µM
same,GI50,U251 glioblastoma,16.2 µM
same,TGI,U251 glioblastoma,30 µM
same,GI50,UACC-257 melanoma,1.94 µM
same,TGI,UACC-257 melanoma,3.36 µM
same,GI50,UACC-62 melanoma,1.37 µM
same,TGI,UACC-62 melanoma,2.85 µM
Cc1cc(-c2nc(-c3ccc(OC(F)(F)F)cc3)no2)nn1Cc1ccnc(N2CCN(C3CC3)CC2)c1,GI50,786-0 renal,4.88 µM
same,TGI,786-0 renal,> 100 µM
same,GI50,A549 NSCLC,< 0.01 µM
same,TGI,A549 NSCLC,> 100 µM
same,GI50,ACHN renal,12.6 µM
same,TGI,ACHN renal,> 100 µM
same,GI50,BT-549 breast,2.06 µM
same,TGI,BT-549 breast,35.9 µM
same,GI50,CAKI-1 renal,14.9 µM
same,TGI,CAKI-1 renal,> 100 µM
same,GI50,CCRF-CEM leukemia,< 0.01 µM
same,TGI,CCRF-CEM leukemia,< 0.01 µM
same,GI50,COLO 205 colon,5.77 µM
same,TGI,COLO 205 colon,> 100 µM
same,GI50,DU-145 prostate,20.3 µM
same,TGI,DU-145 prostate,> 100 µM
same,GI50,EKVX NSCLC,< 0.01 µM
same,TGI,EKVX NSCLC,62.6 µM
same,GI50,HCC-2998 colon,4.19 µM
same,TGI,HCC-2998 colon,20.2 µM
same,GI50,HCT-116 colon,< 0.01 µM
same,TGI,HCT-116 colon,> 100 µM
same,GI50,HCT-15 colon,1.44 µM
same,TGI,HCT-15 colon,18.8 µM
same,GI50,HL-60(TB) leukemia,1.73 µM
same,TGI,HL-60(TB) leukemia,11 µM
same,GI50,HOP-62 NSCLC,< 0.01 µM
same,TGI,HOP-62 NSCLC,20.7 µM
same,GI50,HOP-92 NSCLC,3.45 µM
same,TGI,HOP-92 NSCLC,> 100 µM
same,GI50,HT29 colon,2.43 µM
same,TGI,HT29 colon,12.3 µM
same,GI50,IGROV1 ovarian,9.15 µM
same,TGI,IGROV1 ovarian,> 100 µM
same,GI50,K-562 leukemia,< 0.01 µM
same,TGI,K-562 leukemia,44.9 µM
same,GI50,KM12 colon,5.2 µM
same,TGI,KM12 colon,70.4 µM
same,GI50,LOX IMVI melanoma,< 0.01 µM
same,TGI,LOX IMVI melanoma,14.1 µM
same,GI50,M14 melanoma,2.13 µM
same,TGI,M14 melanoma,7.15 µM
same,GI50,MALME-3M melanoma,4.82 µM
same,TGI,MALME-3M melanoma,18.3 µM
same,GI50,MCF7 breast,0.47 µM
same,TGI,MCF7 breast,15.4 µM
same,GI50,MDA-MB-435 melanoma,5.96 µM
same,TGI,MDA-MB-435 melanoma,> 100 µM
same,GI50,MDA-MB-468 breast,< 0.01 µM
same,TGI,MDA-MB-468 breast,< 0.01 µM
same,GI50,MOLT-4 leukemia,< 0.01 µM
same,TGI,MOLT-4 leukemia,7.05 µM
same,GI50,NCI-H226 lung,4.01 µM
same,TGI,NCI-H226 lung,> 100 µM
same,GI50,NCI-H23 lung,< 0.01 µM
same,TGI,NCI-H23 lung,84.8 µM
same,GI50,NCI-H460 NSCLC,< 0.01 µM
same,TGI,NCI-H460 NSCLC,< 0.01 µM
same,GI50,NCI-H522 lung,< 0.01 µM
same,TGI,NCI-H522 lung,> 100 µM
same,GI50,NCI/ADR-RES ovarian,< 0.01 µM
same,TGI,NCI/ADR-RES ovarian,> 100 µM
same,GI50,OVCAR-3 ovarian,6.51 µM
same,TGI,OVCAR-3 ovarian,> 100 µM
same,GI50,OVCAR-4 ovarian,28.7 µM
same,TGI,OVCAR-4 ovarian,> 100 µM
same,GI50,OVCAR-5 ovarian,15.7 µM
same,TGI,OVCAR-5 ovarian,86.1 µM
same,GI50,OVCAR-8 ovarian,< 0.01 µM
same,TGI,OVCAR-8 ovarian,> 100 µM
same,GI50,PC-3 prostate,2.99 µM
same,TGI,PC-3 prostate,66.9 µM
same,GI50,RPMI-8226 leukemia,< 0.01 µM
same,TGI,RPMI-8226 leukemia,> 100 µM
same,GI50,RXF 393 renal,< 0.01 µM
same,TGI,RXF 393 renal,< 0.01 µM
same,GI50,SF-295 CNS,> 100 µM
same,TGI,SF-295 CNS,> 100 µM
same,GI50,SK-MEL-28 melanoma,12.9 µM
same,TGI,SK-MEL-28 melanoma,28.7 µM
same,GI50,SK-MEL-5 melanoma,< 0.01 µM
same,TGI,SK-MEL-5 melanoma,2.24 µM
same,GI50,SK-OV-3 ovarian,< 0.01 µM
same,TGI,SK-OV-3 ovarian,> 100 µM
same,GI50,SN12C renal,7.01 µM
same,TGI,SN12C renal,> 100 µM
same,GI50,SNB-19 CNS,10.9 µM
same,TGI,SNB-19 CNS,> 100 µM
same,GI50,SW-620 colon,12.1 µM
same,TGI,SW-620 colon,89.7 µM
same,GI50,T-47D breast,< 0.01 µM
same,TGI,T-47D breast,1.5 µM
same,GI50,TK-10 renal,40.9 µM
same,TGI,TK-10 renal,> 100 µM
same,GI50,U251 glioblastoma,1.83 µM
same,TGI,U251 glioblastoma,> 100 µM
same,GI50,UACC-257 melanoma,< 0.01 µM
same,TGI,UACC-257 melanoma,3.31 µM
same,GI50,UACC-62 melanoma,9.33 µM
same,TGI,UACC-62 melanoma,21.8 µM
same,GI50,UO-31 renal,15.7 µM
same,TGI,UO-31 renal,> 100 µM
